In PubChem BioAssay (NCI):
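Exposure lasted 48 hours, with cells grown in 96-well plates and compounds tested at five concentrations. At the GI50, growth is halved. TGI: total growth inhibition.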 Where a SMILES comes first, the peptide text is derived from it. The star is where a group is joined. Palmitoyl = CCCCCCCCCCCCCCCC(=O)*

Tests used:
Assay in all cases: DTP human tumour cell line panel, 48 h
A498 renal = system: A498 renal
HOP-62 NSCLC = system: HOP-62 NSCLC
HT29 colon = system: HT29 colon
KM12 colon = system: KM12 colon
MDA-N = system: MDA-N
SK-MEL-2 melanoma = system: SK-MEL-2 melanoma
SK-OV-3 ovarian = system: SK-OV-3 ovarian
SNB-19 CNS = system: SNB-19 CNS
SW-620 colon = system: SW-620 colon
UACC-257 melanoma = system: UACC-257 melanoma

Compound | TGI (A498 renal) | TGI (HOP-62 NSCLC) | TGI (HT29 colon) | TGI (KM12 colon) | TGI (MDA-N) | TGI (SK-MEL-2 melanoma) | TGI (SK-OV-3 ovarian) | TGI (SNB-19 CNS) | TGI (SW-620 colon) | TGI (UACC-257 melanoma) | GI50 (A498 renal) | GI50 (HOP-62 NSCLC) | GI50 (KM12 colon) | GI50 (SK-MEL-2 melanoma) | GI50 (SK-OV-3 ovarian) | GI50 (SNB-19 CNS) | GI50 (SW-620 colon) | GI50 (HT29 colon) | GI50 (UACC-257 melanoma)
CC1=C(O)C2=C(C(=O)C1=O)[C@@H](C)CC[C@@H]2[C@@H](C)C/C=C/C(C)(C)O | > 100 µM | > 100 µM | > 100 µM | > 100 µM | > 100 µM | > 100 µM | > 100 µM | > 100 µM | > 100 µM | > 100 µM | – | – | – | – | – | – | – | – | –
c1cnc2c(c1)ccc1cccnc12 | > 100 µM | > 100 µM | > 100 µM | > 100 µM | > 100 µM | > 100 µM | > 100 µM | > 100 µM | > 100 µM | > 31.5 µM | – | – | – | – | – | – | – | – | –
c1ccc(-c2nc(N3CCNCC3)c3oc(-c4ccccc4)nc3n2)cc1 | 3.07 µM | 4.81 µM | – | 3.35 µM | – | 5.42 µM | 3.8 µM | 3.15 µM | 2.94 µM | – | 1.62 µM | 2.26 µM | 1.8 µM | 2.31 µM | 1.88 µM | 1.72 µM | 1.35 µM | – | –
Cn1c(-c2ccccc2)cc(-c2cccs2)c1-c1cccs1 | > 100 µM | > 100 µM | > 100 µM | > 44.9 µM | – | > 100 µM | > 100 µM | > 100 µM | > 100 µM | > 51 µM | – | – | – | – | – | – | – | – | –
CCN1CCC(O)(/C=C/c2ccccc2C)C(C(=O)/C=C/c2ccccc2C)C1 (stereo unspecified) | 4.55 µM | 3.74 µM | 6.7 µM | – | 8.88 µM | 5.57 µM | 21 µM | – | 10.1 µM | 9.31 µM | – | – | – | – | – | – | – | – | –
COc1ccc(Oc2cccc(C3C4C(=O)N(c5ccc(C)c(Cl)c5)C(=O)C4ON3C(C(N)=O)c3ccccc3)c2)cc1 (stereo unspecified) | > 50 µM | > 50 µM | 19.8 µM | > 50 µM | 23.6 µM | 38.3 µM | > 50 µM | > 50 µM | > 50 µM | 29.3 µM | – | – | – | – | – | – | – | – | –
CC12C=CC(=O)C=C1CCC1C3CCC(O)(C(=O)CO)C3(C)CC(O)C12F (stereo unspecified) | > 100 µM | > 100 µM | > 100 µM | > 100 µM | > 100 µM | > 100 µM | > 100 µM | > 100 µM | > 100 µM | > 100 µM | – | – | – | – | – | – | – | – | –
COC(=O)c1c(C)n([O-])c2cc(Cl)c(Cl)cc2[n+]1=O | 40.2 µM | > 100 µM | 51.6 µM | 33.1 µM | > 100 µM | 82.1 µM | 40 µM | > 100 µM | > 100 µM | 54.9 µM | – | – | – | – | – | – | – | – | –
CCOC(=O)c1c(C)n(-c2ccc(Cl)cc2)c2c1cc(O)c1[nH]c3c(c12)CCCC3 | > 100 µM | > 100 µM | > 100 µM | > 100 µM | > 100 µM | 92.9 µM | > 100 µM | > 100 µM | > 100 µM | > 100 µM | – | – | – | – | – | – | – | – | –
CCCC1CCC(=C2C(=O)CCC2=O)O1 (stereo unspecified) | – | > 100 µM | > 100 µM | > 100 µM | > 100 µM | > 100 µM | > 100 µM | > 100 µM | > 100 µM | > 100 µM | – | – | – | – | – | – | – | – | –
CN1C(c2ccccc2)CC(=O)C(N)C1c1ccccc1 (stereo unspecified) | > 100 µM | > 100 µM | 55.8 µM | 57.5 µM | – | 41.1 µM | > 100 µM | > 100 µM | 57.1 µM | > 87.1 µM | – | – | – | – | – | – | – | – | –
Nc1nc(O)c2ncn([C@H]3CC[C@@H](CO)O3)c2n1 | > 100 µM | > 100 µM | > 100 µM | > 100 µM | > 100 µM | > 100 µM | > 100 µM | > 100 µM | > 100 µM | > 100 µM | – | – | – | – | – | – | – | – | –
Cc1ccc(-c2nc(N/N=C/C=C/c3ccccc3)c3ccccc3n2)cc1 | – | > 100 µM | > 100 µM | > 100 µM | > 100 µM | 99.2 µM | > 100 µM | > 100 µM | > 100 µM | > 100 µM | – | – | – | – | – | – | – | – | –
OCCN(CCO)c1ncnc2nc[nH]c12 | > 100 µM | > 100 µM | > 100 µM | > 100 µM | > 100 µM | – | > 100 µM | > 100 µM | > 100 µM | > 100 µM | – | – | – | – | – | – | – | – | –
O=C(/C=C/c1ccc(Oc2cc(C(=O)/C=C/c3ccc(O)cc3)c(O)cc2O)cc1)c1ccc(O)cc1O | 14.1 µM | 15.5 µM | 3.57 µM | 6.64 µM | – | 28.2 µM | 8.88 µM | 30.9 µM | 19.8 µM | 28.4 µM | – | – | – | – | – | – | – | – | –
COC(=O)C1=C(OC(=O)/C(=C/c2ccc(Cl)cc2)c2ccc(Cl)cc2)C(C(=O)OC)[C@]2(O)[C@@H](C(=O)OC)[C@H]1C[C@@H](c1ccccc1)[C@@H]2C(=O)OC (stereo partly specified) | – | > 100 µM | > 100 µM | > 100 µM | > 100 µM | > 100 µM | > 100 µM | > 100 µM | > 100 µM | > 100 µM | – | – | – | – | – | – | – | – | –
C/C(=N/N=C(\[O-])c1ccncc1)C(F)(F)F.C/C(=N\N=C(/[O-])c1ccncc1)C(F)(F)F.[Ni+2] | > 1 µM | > 1 µM | > 1 µM | > 1 µM | – | – | 0.005 µM | > 1 µM | > 1 µM | > 1 µM | > 1 µM | > 1 µM | > 1 µM | > 1 µM | 0.00156 µM | > 1 µM | > 1 µM | > 1 µM | > 1 µM
CCCCCCCCCCCCCCCC(=O)N1CCCC1C(=O)NCC(=O)NC(Cc1ccccc1)C(=O)NC(C)C(=O)NC(CO)C(=O)NC(Cc1ccc(O)cc1)C(=O)NC(CCCCN)C(=O)NC(CC(C)C)C(=O)NC(CCCN=C(N)N)C(=O)N1CCCC1C(=O)NCC(N)=O (stereo unspecified) (Palmitoyl-PGFASYKLRPG-NH2; configuration not given here) | > 100 µM | 46 µM | 30.5 µM | 51.4 µM | – | > 100 µM | 28.7 µM | 39.7 µM | > 100 µM | 52.7 µM | 37.4 µM | 21.1 µM | 21.9 µM | 34.6 µM | 12.8 µM | 18.4 µM | 37.5 µM | 16.8 µM | 26.4 µM
COc1cc(C(C)O)c[n+](Cc2ccccc2)c1 (stereo unspecified) | > 100 µM | > 100 µM | > 100 µM | > 100 µM | – | > 100 µM | > 100 µM | > 100 µM | > 100 µM | > 100 µM | – | – | – | – | – | – | – | – | –
O=c1c2cc(S(=O)(=O)O)ccc2nc(COc2ccc(Oc3ccc(Cl)cc3Cl)cc2)n1-c1ccc(Oc2ccc(Cl)cc2)cc1Cl | 57 µM | 46 µM | 36 µM | > 100 µM | 59.2 µM | 32.2 µM | 49.2 µM | 67.7 µM | 50.4 µM | 57.4 µM | – | – | – | – | – | – | – | – | –
C[N+](C)(C)c1ncnc2c1ncn2C1CC(O)C(CO)O1 (stereo unspecified) | > 100 µM | > 100 µM | > 100 µM | > 100 µM | > 100 µM | > 100 µM | > 100 µM | > 100 µM | > 100 µM | > 100 µM | – | – | – | – | – | – | – | – | –
Nc1[nH]c(=O)nc2c1cnn2C1CCCCO1 (stereo unspecified) | > 100 µM | – | > 100 µM | > 100 µM | – | > 100 µM | – | > 100 µM | > 100 µM | > 100 µM | – | – | – | – | – | – | – | – | –
CC(C)C(C(=O)O)N1C(=O)c2ccccc2C1=O (stereo unspecified) | > 100 µM | > 100 µM | > 100 µM | > 100 µM | > 100 µM | 0.612 µM | > 100 µM | > 100 µM | > 100 µM | > 100 µM | – | – | – | – | – | – | – | – | –
COC(=O)/C=C(\CC(=O)OC)n1nnnc1[C@@H]1C[C@H](COC(c2ccccc2)(c2ccccc2)c2ccccc2)[C@H]2OC(C)(C)O[C@H]21 | > 100 µM | > 100 µM | > 100 µM | > 100 µM | > 100 µM | > 100 µM | > 100 µM | > 100 µM | > 100 µM | > 100 µM | – | – | – | – | – | – | – | – | –
